≈ marks a conversion by molar mass, not a printed value.
Columns and labels:
M. abscessus = test: MIC by broth dilution method (Middlebrook 7H9); format: cell-based, Mycobacteroides abscessus
[1] = system: Mycobacterium tuberculosis reference strain H37Rv; test: MIC by broth dilution method; format: cell-based; settings: 336 h, 37 °C, 14 days
Protocol: MIC of each drug against M. abscessus was determined using the broth dilution method[27] in accordance with CLSI guidelines specific for this organism, except that Middlebrook 7H9 broth was used instead of cation-adjusted Mueller–Hinton broth. Powdered drug stocks were reconstituted in dimethyl sulfoxide and twofold serial dilutions were prepared in Middlebrook 7H9 broth to obtain final drug concentrations ranging from 512 to 0.5 µg/mL in 96-well plates. 10^5 colony forming units (CFU)/mL of M. abscessus from an exponentially growing culture were added to each well. M. abscessus cultured without drug and 7H9 broth alone were included in each plate as positive and negative controls, respectively. […] Growth of M. abscessus or lack thereof was assessed by visual inspection and an MIC for each drug was recorded as the lowest concentration at which M. abscessus growth was not observed. Results are reported as medians determined from three independent biological replicates. […] Middlebrook 7H9 broth was used for this assay and growth or lack thereof of M. tuberculosis was assessed after incubation at 37 °C for 14 days.

[2] = Stability in mouse plasma; format: in vitro ADME; settings: 5 μM, 37 °C, over 4 h
in vivo = test: in vivo; parameters: species or system BALB/c mice; settings: mouse, sc
Protocol: (§1) All procedures involving mice were approved by the Animal Care and Use Committee of Johns Hopkins University. […] Blood was sampled from three mice per group per time point by mandibular vein puncture or cardiac puncture at the following time points: 5, 15, 30, 60, 120, and 240 min post-dose. Plasma was separated in heparin-containing tubes and frozen. […] Concentration–time data were analyzed by standard non-compartmental and compartmental techniques using WinNonlin (version 7.0; Pharsight, Mountain View, CA). A one-compartmental model was used to perform simulations to predict the plasma concentration–time profile after subcutaneous doses of 150, 300, and 450 mg/kg, alone and in combination with probenecid. A plasma free drug fraction of 2% of the total drug concentration was included in the simulations.

[3] = PK simulation with one-compartmental model (plasma-free drug, fT>MIC); parameters: species or system BALB/c mice
Protocol: as §1, with “University. T405 was dissolved in PBS.” for “University.”, “A one-compartmental model was used to perform simulations to predict the plasma concentration–time profile after subcutaneous doses of 150, 300, and 450 mg/kg, alone and in combination with probenecid.” left out

SMILES: C[C@@H](O)C1C(=O)N2C(C(=O)O)=C(SC3CN(C4=NCCS4)C3)SC12 (stereo in doubt) [T405]
- strains exhibiting MICs of ≤4 µg/mL (M. abscessus; 20 clinical M. abscessus strains): 17/20
- MIC of T405 with avibactam (M. abscessus; ATCC 19977, avibactam 4 µg/mL): 0.5 µg/mL
- MIC50 (M. abscessus; Mycobacteroides abscessus): 2 µg/mL (≈ 5.16 µM)
- MIC90 (M. abscessus; Mycobacteroides abscessus): 8 µg/mL (≈ 20.6 µM)
- MIC (M. abscessus; Mycobacteroides abscessus, ATCC19977, reference strain ATCC 19977): 2 µg/mL (≈ 5.16 µM)
- MIC (M. abscessus; Mycobacteroides abscessus, clinical isolate 1N): 2 µg/mL (≈ 5.16 µM)
- MIC (M. abscessus; Mycobacteroides abscessus, clinical isolate 2N): 2 µg/mL (≈ 5.16 µM)
- MIC (M. abscessus; Mycobacteroides abscessus, clinical isolate 3N): 2 µg/mL (≈ 5.16 µM)
- MIC (M. abscessus; Mycobacteroides abscessus, clinical isolate 4N): 1 µg/mL (≈ 2.58 µM)
- MIC (M. abscessus; Mycobacteroides abscessus, clinical isolate 5N): 1 µg/mL (≈ 2.58 µM)
- MIC (M. abscessus; Mycobacteroides abscessus, clinical isolate 8N): 4 µg/mL (≈ 10.3 µM)
- MIC (M. abscessus; Mycobacteroides abscessus, clinical isolate 11N): 8 µg/mL (≈ 20.6 µM)
- MIC (M. abscessus; Mycobacteroides abscessus, clinical isolate 13N): 1 µg/mL (≈ 2.58 µM)
- MIC (M. abscessus; Mycobacteroides abscessus, clinical isolate 14N): 8 µg/mL (≈ 20.6 µM)
- MIC (M. abscessus; Mycobacteroides abscessus, clinical isolate 202): 2 µg/mL (≈ 5.16 µM)
- MIC (M. abscessus; Mycobacteroides abscessus, clinical isolate 203): 2 µg/mL (≈ 5.16 µM)
- MIC (M. abscessus; Mycobacteroides abscessus, clinical isolate 204): 8 µg/mL (≈ 20.6 µM)
- MIC (M. abscessus; Mycobacteroides abscessus, clinical isolate 214): 1 µg/mL (≈ 2.58 µM)
- MIC (M. abscessus; Mycobacteroides abscessus, clinical isolate 215): 2 µg/mL (≈ 5.16 µM)
- MIC (M. abscessus; Mycobacteroides abscessus, clinical isolate JH1801): 1 µg/mL (≈ 2.58 µM)
- MIC (M. abscessus; Mycobacteroides abscessus, clinical isolate JH1802): 4 µg/mL (≈ 10.3 µM)
- MIC (M. abscessus; Mycobacteroides abscessus, clinical isolate JHH2): 4 µg/mL (≈ 10.3 µM)
- MIC (M. abscessus; Mycobacteroides abscessus, clinical isolate JHH4): 2 µg/mL (≈ 5.16 µM)
- MIC (M. abscessus; Mycobacteroides abscessus, clinical isolate JHH9): 4 µg/mL (≈ 10.3 µM)
- MIC (M. abscessus; Mycobacteroides abscessus, clinical isolate JHHKB): 2 µg/mL (≈ 5.16 µM)
- Reduction of T405 MIC by addition of avibactam (M. abscessus; avibactam 4 µg/mL, ATCC 19977 and 10 clinical isolates): two-fold (7 strains) or fourfold (2 strains)
- MIC [1]: 0.5 to 1 µg/mL (≈ 1.29 to 2.58 µM)
- stability in mouse plasma [2]: no measurable degradation
- half-life (in vivo; female, BALB/c): 1.26 h
- AUC(0-t) (in vivo; female, BALB/c, 25 mg/kg): 205 µg·h/mL
- Cmax (in vivo; female, BALB/c, 25 mg/kg): 164 µg/mL
- half-life (in vivo; female, BALB/c, 25 mg/kg): 0.82 h
- Half-life, effect of co-administration with cilastatin (in vivo): not affected
- simulated plasma-free T405 concentration ([3]; 25mg/kg alone, 0.083 h): 3120 ng/mL
- simulated plasma-free T405 concentration ([3]; 25mg/kg alone, 0.25 h): 3273.33 ng/mL
- simulated plasma-free T405 concentration ([3]; 25mg/kg alone, 0.5 h): 2446 ng/mL
- simulated plasma-free T405 concentration ([3]; 25mg/kg alone, 1 h): 1212.67 ng/mL
- simulated plasma-free T405 concentration ([3]; 25mg/kg alone, 2 h): 526 ng/mL
- simulated plasma-free T405 concentration ([3]; 25mg/kg alone, 4 h): 131.67 ng/mL
- simulated plasma-free T405 concentration ([3]; 25mg/kg alone, 6 h): 29.76 ng/mL
- simulated plasma-free T405 concentration ([3]; 25mg/kg alone, 8 h): 6.87 ng/mL
- simulated plasma-free T405 concentration ([3]; 25mg/kg alone, 10 h): 1.58 ng/mL
- simulated plasma-free T405 concentration ([3]; 25mg/kg alone, 12 h): 0.37 ng/mL
- simulated plasma-free T405 concentration ([3]; 25mg/kg alone, 16 h): 0.02 ng/mL
- simulated plasma-free T405 concentration ([3]; 25mg/kg alone, 20 h): 0 ng/mL
- simulated plasma-free T405 concentration ([3]; 25mg/kg alone, 24 h): 0 ng/mL
- simulated plasma-free T405 concentration ([3]; 150mg/kg alone, 0.083 h): 18720 ng/mL
- simulated plasma-free T405 concentration ([3]; 150mg/kg alone, 0.25 h): 19640 ng/mL
- simulated plasma-free T405 concentration ([3]; 150mg/kg alone, 0.5 h): 14676 ng/mL
- simulated plasma-free T405 concentration ([3]; 150mg/kg alone, 1 h): 7276 ng/mL
- simulated plasma-free T405 concentration ([3]; 150mg/kg alone, 2 h): 3156 ng/mL
- simulated plasma-free T405 concentration ([3]; 150mg/kg alone, 4 h): 790 ng/mL
- simulated plasma-free T405 concentration ([3]; 150mg/kg alone, 6 h): 178.58 ng/mL
- simulated plasma-free T405 concentration ([3]; 150mg/kg alone, 8 h): 41.2 ng/mL
- simulated plasma-free T405 concentration ([3]; 150mg/kg alone, 10 h): 9.51 ng/mL
- simulated plasma-free T405 concentration ([3]; 150mg/kg alone, 12 h): 2.19 ng/mL
- simulated plasma-free T405 concentration ([3]; 150mg/kg alone, 16 h): 0.12 ng/mL
- simulated plasma-free T405 concentration ([3]; 150mg/kg alone, 20 h): 0.01 ng/mL
- simulated plasma-free T405 concentration ([3]; 150mg/kg alone, 24 h): 0 ng/mL
- simulated plasma-free T405 concentration ([3]; 300mg/kg alone, 0.083 h): 37440 ng/mL
- simulated plasma-free T405 concentration ([3]; 300mg/kg alone, 0.25 h): 39280 ng/mL
- simulated plasma-free T405 concentration ([3]; 300mg/kg alone, 0.5 h): 29352 ng/mL
- simulated plasma-free T405 concentration ([3]; 300mg/kg alone, 1 h): 14552 ng/mL
- simulated plasma-free T405 concentration ([3]; 300mg/kg alone, 2 h): 6312 ng/mL
- simulated plasma-free T405 concentration ([3]; 300mg/kg alone, 4 h): 1580 ng/mL
- simulated plasma-free T405 concentration ([3]; 300mg/kg alone, 6 h): 357.16 ng/mL
- simulated plasma-free T405 concentration ([3]; 300mg/kg alone, 8 h): 82.4 ng/mL
- simulated plasma-free T405 concentration ([3]; 300mg/kg alone, 10 h): 19.01 ng/mL
- simulated plasma-free T405 concentration ([3]; 300mg/kg alone, 12 h): 4.39 ng/mL
- simulated plasma-free T405 concentration ([3]; 300mg/kg alone, 16 h): 0.23 ng/mL
- simulated plasma-free T405 concentration ([3]; 300mg/kg alone, 20 h): 0.01 ng/mL
- simulated plasma-free T405 concentration ([3]; 300mg/kg alone, 24 h): 0 ng/mL
- predicted free drug time above MIC (fT>MIC) ([3]; 300 mg/kg twice daily, in the presence of avibactam): above 40%
- simulated plasma-free T405 concentration ([3]; 450mg/kg alone, 0.083 h): 56160 ng/mL
- simulated plasma-free T405 concentration ([3]; 450mg/kg alone, 0.25 h): 58920 ng/mL
- simulated plasma-free T405 concentration ([3]; 450mg/kg alone, 0.5 h): 44028 ng/mL
- simulated plasma-free T405 concentration ([3]; 450mg/kg alone, 1 h): 21828 ng/mL
- simulated plasma-free T405 concentration ([3]; 450mg/kg alone, 2 h): 9468 ng/mL
- simulated plasma-free T405 concentration ([3]; 450mg/kg alone, 4 h): 2370 ng/mL
- simulated plasma-free T405 concentration ([3]; 450mg/kg alone, 6 h): 535.74 ng/mL
- simulated plasma-free T405 concentration ([3]; 450mg/kg alone, 8 h): 123.6 ng/mL
- simulated plasma-free T405 concentration ([3]; 450mg/kg alone, 10 h): 28.52 ng/mL
- simulated plasma-free T405 concentration ([3]; 450mg/kg alone, 12 h): 6.58 ng/mL
- simulated plasma-free T405 concentration ([3]; 450mg/kg alone, 16 h): 0.35 ng/mL
- simulated plasma-free T405 concentration ([3]; 450mg/kg alone, 20 h): 0.02 ng/mL
- simulated plasma-free T405 concentration ([3]; 450mg/kg alone, 24 h): 0 ng/mL
- predicted free drug time above MIC (fT>MIC) ([3]; 450 mg/kg twice daily with probenecid, in absence of avibactam): 54%
- predicted free drug time above MIC (fT>MIC) ([3]; 450 mg/kg twice daily with probenecid, in presence of avibactam): 72%
- predicted free drug time above MIC (fT>MIC) ([3]; 450 mg/kg twice daily, free fraction 2%, MIC 0.5 µg/mL (ATCC 19977 in presence of avibactam)): 48%
- predicted free drug time above MIC (fT>MIC) ([3]; 450 mg/kg twice daily, free fraction 2%, MIC 2 µg/mL (absence of avibactam)): 35%
- simulated plasma-free T405 concentration ([3]; 450mg/kg+Prob (with probenecid), 0.083 h): 48480 ng/mL
- simulated plasma-free T405 concentration ([3]; 450mg/kg+Prob (with probenecid), 0.25 h): 52560 ng/mL
- simulated plasma-free T405 concentration ([3]; 450mg/kg+Prob (with probenecid), 0.5 h): 44640 ng/mL
- simulated plasma-free T405 concentration ([3]; 450mg/kg+Prob (with probenecid), 1 h): 29664 ng/mL
- simulated plasma-free T405 concentration ([3]; 450mg/kg+Prob (with probenecid), 2 h): 16020 ng/mL
- simulated plasma-free T405 concentration ([3]; 450mg/kg+Prob (with probenecid), 4 h): 6636 ng/mL
- simulated plasma-free T405 concentration ([3]; 450mg/kg+Prob (with probenecid), 6 h): 2425.1 ng/mL
- simulated plasma-free T405 concentration ([3]; 450mg/kg+Prob (with probenecid), 8 h): 908.73 ng/mL
- simulated plasma-free T405 concentration ([3]; 450mg/kg+Prob (with probenecid), 10 h): 340.52 ng/mL
- simulated plasma-free T405 concentration ([3]; 450mg/kg+Prob (with probenecid), 12 h): 127.6 ng/mL
- simulated plasma-free T405 concentration ([3]; 450mg/kg+Prob (with probenecid), 16 h): 17.92 ng/mL
- simulated plasma-free T405 concentration ([3]; 450mg/kg+Prob (with probenecid), 20 h): 2.52 ng/mL
- simulated plasma-free T405 concentration ([3]; 450mg/kg+Prob (with probenecid), 24 h): 0.35 ng/mL

From PMC7721803, “Development of a penem antibiotic against Mycobacteroides abscessus” (Communications Biology, 2020)
